Active and inactive are the calls of the source.
Tests used:
[1] = target: Glyceraldehyde-3-phosphate dehydrogenase (Homo sapiens, UniProt P04406)
Large T antigen = Large T antigen (Simian virus 40, UniProt P03070); assay type: functional, Betapolyomavirus macacae;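 note: Confirmatory-stage PubChem screen for compounds that inhibit SV40 T antigen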
[2] = target: T1, Rac GTPase-activating protein 1 (Homo sapiens, UniProt Q9H0H5); assay: blockers of MgcRacGAP-driven Rac1 GTP hydrolysis – biochemical, ADP Hunter fluorescence, primary and confirmatory, confirmation (AID 624330); assay type: functional
T1 sequence (Q9H0H5 whole entry): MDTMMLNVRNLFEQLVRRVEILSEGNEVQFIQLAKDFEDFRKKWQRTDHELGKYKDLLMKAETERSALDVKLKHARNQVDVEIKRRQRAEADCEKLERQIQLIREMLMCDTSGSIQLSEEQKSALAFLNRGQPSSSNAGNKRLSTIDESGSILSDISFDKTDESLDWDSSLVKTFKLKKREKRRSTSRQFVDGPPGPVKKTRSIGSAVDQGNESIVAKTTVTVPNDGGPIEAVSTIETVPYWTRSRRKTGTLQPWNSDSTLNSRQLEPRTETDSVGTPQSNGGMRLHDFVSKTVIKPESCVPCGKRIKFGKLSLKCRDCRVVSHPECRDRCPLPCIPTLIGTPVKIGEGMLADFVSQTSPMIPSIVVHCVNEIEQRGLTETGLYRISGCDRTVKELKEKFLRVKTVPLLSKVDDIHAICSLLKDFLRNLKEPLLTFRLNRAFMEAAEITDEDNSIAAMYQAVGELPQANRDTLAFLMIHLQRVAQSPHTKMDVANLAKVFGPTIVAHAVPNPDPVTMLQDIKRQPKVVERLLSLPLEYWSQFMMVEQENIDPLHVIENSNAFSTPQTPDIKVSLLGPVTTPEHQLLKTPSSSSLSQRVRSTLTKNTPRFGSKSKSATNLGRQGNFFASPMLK

[3] = viability of PTEN-deleted HCT116 cells – cell-based, HCT116 PTEN knockout, dose response (AID 1047); assay type: functional;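 note: HCT116 colon tumor cells with PTEN knocked out; cells exposed to compound for 60 hours before readout; potency for loss of cell viability measured by luminescence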
[4] = viability of HCT116 lacking mutant beta-catenin – cell-based, human colon tumor, dose response (AID 1045); assay type: functional;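 note: HCT116 colon tumor cells with beta catenin knocked out; cells exposed to compound for 60 hours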
cells [5] = assay type: functional, cell-based
cells [6] = assay type: functional, cell-based; remark: listed apart in the source
[7] = target: T2, Ubiquitin-conjugating enzyme E2 N (Homo sapiens, UniProt P61088); assay type: functional;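 note: Dose-response confirmation in a TR-FRET assay detecting UBC13-driven polyubiquitin chain formation, inhibition measured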
T2 sequence (P61088 whole entry): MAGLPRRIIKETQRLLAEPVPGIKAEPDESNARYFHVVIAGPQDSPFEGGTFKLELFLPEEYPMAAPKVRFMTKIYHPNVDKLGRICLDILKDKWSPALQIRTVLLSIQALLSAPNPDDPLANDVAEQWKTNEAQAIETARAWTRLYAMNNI

[8] = viability of uninfected HEp-2 cells – cell-based, HTS, cytotoxicity control for RSV inhibitor project, dose response (AID 2410); assay type: functional; details: human respiratory syncytial virus
[9] = DRD fibroblast viability loss – cell-based, non-viral oncogenic, luminescence, dose response (AID 1934); assay type: functional; details: Homo sapiens
Paired box protein Pax-8 = Paired box protein Pax-8 (Homo sapiens, UniProt Q06710); assay: PAX8 transcriptional activity inhibition in RMG-I – RMG-I cells, luciferase, cherry-pick, dose response (AID 687027); assay type: functional, cell-based;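 note: luciferase reporter driven by Pax8 target thyroperoxidase promoter measured by SteadyGlo luminescence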
Paired box protein Pax-8, sequence (Q06710 whole entry): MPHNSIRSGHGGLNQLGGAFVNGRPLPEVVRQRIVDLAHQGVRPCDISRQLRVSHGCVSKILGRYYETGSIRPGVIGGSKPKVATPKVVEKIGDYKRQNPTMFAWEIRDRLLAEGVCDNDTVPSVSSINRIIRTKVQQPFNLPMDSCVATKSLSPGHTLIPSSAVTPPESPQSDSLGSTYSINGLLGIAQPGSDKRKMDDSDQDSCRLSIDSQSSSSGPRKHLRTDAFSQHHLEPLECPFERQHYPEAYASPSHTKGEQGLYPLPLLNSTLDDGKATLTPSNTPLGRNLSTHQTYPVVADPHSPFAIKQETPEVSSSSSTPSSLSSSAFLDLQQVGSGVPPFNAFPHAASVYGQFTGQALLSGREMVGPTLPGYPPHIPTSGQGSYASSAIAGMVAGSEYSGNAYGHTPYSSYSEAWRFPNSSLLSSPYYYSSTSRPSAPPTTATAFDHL

BJ [10] = assay: cells; assay type: functional, cell-based; details: Homo sapiens
BJ [11] = assay: BJ-TERT fibroblast viability loss – cell-based, RAS-independent, luminescence, dose response (AID 1933); assay type: functional; details: Homo sapiens
cells [12] = assay type: functional
[13] = target: T3, Corticotropin-releasing factor receptor 2/Corticotropin-releasing factor-binding protein (Homo sapiens, UniProt P24387+Q13324); assay: activators of CRF receptor 2 with binding protein – uHTS hits, confirmation (AID 602473); assay type: functional; details: read-out: EC50_Mean
T3 sequence (Q13324 whole entry): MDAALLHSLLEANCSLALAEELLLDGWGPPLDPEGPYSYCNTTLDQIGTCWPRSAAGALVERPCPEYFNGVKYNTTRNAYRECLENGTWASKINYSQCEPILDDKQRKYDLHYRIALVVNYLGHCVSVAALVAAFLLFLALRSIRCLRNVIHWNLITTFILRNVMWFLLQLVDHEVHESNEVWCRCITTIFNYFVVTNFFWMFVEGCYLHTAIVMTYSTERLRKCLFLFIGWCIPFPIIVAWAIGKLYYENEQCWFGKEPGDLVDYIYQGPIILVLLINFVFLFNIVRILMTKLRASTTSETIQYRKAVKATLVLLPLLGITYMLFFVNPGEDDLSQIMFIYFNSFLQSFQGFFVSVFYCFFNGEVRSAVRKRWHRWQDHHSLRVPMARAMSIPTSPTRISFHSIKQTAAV
T3 sequence (P24387 whole entry): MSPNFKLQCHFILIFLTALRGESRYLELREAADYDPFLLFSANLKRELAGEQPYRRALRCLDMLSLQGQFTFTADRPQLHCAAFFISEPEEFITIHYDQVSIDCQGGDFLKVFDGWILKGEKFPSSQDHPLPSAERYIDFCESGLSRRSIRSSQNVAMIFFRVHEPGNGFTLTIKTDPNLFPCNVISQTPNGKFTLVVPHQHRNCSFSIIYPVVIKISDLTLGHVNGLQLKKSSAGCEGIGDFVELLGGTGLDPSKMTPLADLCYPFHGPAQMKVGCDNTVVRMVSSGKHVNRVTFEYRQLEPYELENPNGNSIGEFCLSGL

[14] = alpha-synuclein stem-loop luciferase translation blockers – H4 neuroglioma cells, luminescence, confirmation (AID 1988); assay type: functional, cell-based
[15] = Luminescence Cell-Based Dose Response HTS to Identify Inhibitors of 5'UTR Stem-Loop Driven Prion Protein mRNA Translation in H4 Neuroglioblastoma Cells. [Related pubchem assays: 1827 (Project Summary), 1813 (Primary HTS)]; assay type: functional
Cytochrome P450 3A4 = Cytochrome P450 3A4 (Homo sapiens, UniProt P08684);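 note: CYP3A4 tested as one member of a cytochrome P450 panel screen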
Cytochrome P450 3A4, sequence (P08684 whole entry): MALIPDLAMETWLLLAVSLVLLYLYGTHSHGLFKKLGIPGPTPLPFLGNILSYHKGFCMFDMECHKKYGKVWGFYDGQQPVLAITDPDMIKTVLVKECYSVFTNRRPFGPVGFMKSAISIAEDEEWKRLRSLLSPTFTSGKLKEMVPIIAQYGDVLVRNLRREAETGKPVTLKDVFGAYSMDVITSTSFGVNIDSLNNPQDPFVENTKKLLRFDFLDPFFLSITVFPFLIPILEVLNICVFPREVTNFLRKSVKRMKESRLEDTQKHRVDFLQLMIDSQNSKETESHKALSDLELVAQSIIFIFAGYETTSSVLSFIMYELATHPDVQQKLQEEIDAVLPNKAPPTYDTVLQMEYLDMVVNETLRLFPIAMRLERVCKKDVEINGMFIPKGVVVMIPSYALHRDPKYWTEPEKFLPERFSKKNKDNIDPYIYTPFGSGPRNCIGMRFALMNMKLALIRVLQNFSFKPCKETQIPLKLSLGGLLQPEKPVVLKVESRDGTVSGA

[16] = luciferase reporter signal suppression in cells – H4 neuroglioma cells, luminescence, dose response (AID 1990); assay type: functional, cell-based
[17] = target: Luciferin 4-monooxygenase (Photinus pyralis, UniProt P08659); assay: inhibition of purified Photinus pyralis luciferase – biochemical, luminescence, dose response (AID 1891)
Luciferin 4-monooxygenase, sequence (P08659 whole entry): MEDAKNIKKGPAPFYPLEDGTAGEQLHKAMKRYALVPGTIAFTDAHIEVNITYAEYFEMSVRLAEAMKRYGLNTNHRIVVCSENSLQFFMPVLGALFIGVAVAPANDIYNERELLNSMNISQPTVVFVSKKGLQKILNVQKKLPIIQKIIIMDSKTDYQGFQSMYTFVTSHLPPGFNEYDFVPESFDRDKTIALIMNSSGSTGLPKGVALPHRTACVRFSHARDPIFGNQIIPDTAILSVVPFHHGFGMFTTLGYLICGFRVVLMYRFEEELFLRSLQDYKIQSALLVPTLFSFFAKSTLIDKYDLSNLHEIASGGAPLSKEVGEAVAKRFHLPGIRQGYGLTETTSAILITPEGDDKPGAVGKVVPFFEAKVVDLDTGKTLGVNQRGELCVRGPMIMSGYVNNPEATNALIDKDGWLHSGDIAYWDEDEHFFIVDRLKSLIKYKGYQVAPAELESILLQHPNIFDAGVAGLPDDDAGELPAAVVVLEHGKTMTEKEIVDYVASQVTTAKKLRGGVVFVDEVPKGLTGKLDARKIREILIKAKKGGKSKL

[18] = Luminescence Cell-Based Dose Confirmation HTS to Identify Inhibitors of Platelet Dense Granule Release. [Related pubchem assays: 1663 (Primary HTS), 1678 (Summary of Project)]; assay type: functional

Large T antigen, sequence (P03070 whole entry): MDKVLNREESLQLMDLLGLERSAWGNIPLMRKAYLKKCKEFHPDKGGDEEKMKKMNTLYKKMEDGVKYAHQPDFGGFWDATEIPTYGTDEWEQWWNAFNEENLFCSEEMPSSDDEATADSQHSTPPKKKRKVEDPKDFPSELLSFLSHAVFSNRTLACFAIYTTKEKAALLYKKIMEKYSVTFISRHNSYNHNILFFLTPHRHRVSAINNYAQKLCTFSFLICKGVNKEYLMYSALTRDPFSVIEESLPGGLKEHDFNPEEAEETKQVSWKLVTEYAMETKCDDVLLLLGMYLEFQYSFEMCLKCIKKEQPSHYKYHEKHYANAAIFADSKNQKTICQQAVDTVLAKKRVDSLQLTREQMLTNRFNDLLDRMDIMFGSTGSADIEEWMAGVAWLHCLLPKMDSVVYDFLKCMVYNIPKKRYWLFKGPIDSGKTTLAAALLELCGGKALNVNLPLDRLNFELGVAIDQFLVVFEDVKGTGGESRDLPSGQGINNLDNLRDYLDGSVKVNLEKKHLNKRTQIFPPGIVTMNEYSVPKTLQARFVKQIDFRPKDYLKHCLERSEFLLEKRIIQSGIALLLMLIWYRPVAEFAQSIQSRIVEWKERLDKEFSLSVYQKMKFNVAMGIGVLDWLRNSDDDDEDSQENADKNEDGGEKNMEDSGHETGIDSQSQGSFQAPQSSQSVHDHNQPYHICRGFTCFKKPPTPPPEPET
Glyceraldehyde-3-phosphate dehydrogenase, sequence (P04406 whole entry): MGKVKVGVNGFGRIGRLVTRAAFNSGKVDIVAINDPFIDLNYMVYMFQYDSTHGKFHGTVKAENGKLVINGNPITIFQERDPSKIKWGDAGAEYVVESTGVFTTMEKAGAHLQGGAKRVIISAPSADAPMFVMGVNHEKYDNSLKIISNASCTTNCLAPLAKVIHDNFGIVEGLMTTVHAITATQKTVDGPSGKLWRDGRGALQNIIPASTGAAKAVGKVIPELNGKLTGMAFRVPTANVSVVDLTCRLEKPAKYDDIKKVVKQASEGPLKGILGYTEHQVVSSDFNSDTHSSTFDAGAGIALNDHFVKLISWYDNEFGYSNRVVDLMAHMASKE

CCN1CCN(C2=C(Cl)C(=O)N(c3cccc(OC)c3)C2=O)CC1
IC50 [1]: > 50 µM (inconclusive)

COc1cc(/C=C2\SC(Nc3ccc(Cl)c(C(=O)O)c3)=NC2=O)c(Br)c(Br)c1O
IC50 (Large T antigen): 3.27 µM (active)
IC50 [2]: 13.9 µM (active)

C/C(=N\NC(=O)c1c(Br)c(C)nn1C)c1ccc(NC(=O)C(C)Oc2ccc(Cl)cc2C)cc1 (stereo not drawn)
EC50 [3]: 11 µM (active)
EC50 [4]: 15.1 µM (active)

Cc1ccc(N(C)S(=O)(=O)c2ccc(-c3cc(C)no3)s2)cc1
EC50 (cells [5]): > 350 µM (not active)
EC50 (cells [6]): > 350 µM (not active)

COc1ccc(C(CC(=O)O)C(N)=O)cc1 (stereo not drawn)
IC50 [1]: > 100 µM (not active)

Cc1cc(N/N=C/c2cccc(Cl)c2)nc(NCc2ccccc2)n1
EC50 [3]: 35.3 µM (active)
EC50 [4]: 39.6 µM (active)

Cc1c(C(=O)Nc2ccc(S(=O)(=O)N(C)C3CCN(C)CC3)cc2)oc2ccccc12
IC50 [7]: > 20 µM (inactive)
CC50 [8]: 17.2 µM (active)

COc1ccc(C(=O)NN(C)c2nc(C(F)(F)F)nc3ccccc23)cc1
EC50 [9]: < 0.12 µM (active)
AC50 (Paired box protein Pax-8): 1.79 µM (active)
EC50 (BJ [10]): 0.45 µM (active)
EC50 (BJ [11]): < 0.12 µM (active)

CC(=O)c1ccc(OCC(=O)Nc2ccc3c(c2)CCC3)cc1
IC50 (cells [12]): > 50 µM (active)

CC/N=c1\scc(C)n1/N=C/c1cc(Br)c(O)c(Br)c1
IC50 (Large T antigen): 21.6 µM (active)
CC50 [8]: 13.3 µM (active)

CN(C)c1ccc(C=C2SC(=S)N(Cc3ccco3)C2=O)cc1
EC50 [13]: 3.2 µM (active)

CC(C)C1Cc2c(sc3c2c(=O)n(-c2ccccc2)c2n[nH]c(=S)n32)CO1 (stereo not drawn)
IC50 (Large T antigen): 29.5 µM (active)

COc1cc(/C=C2\C(=N)N3N=C(CC(=O)N4CCCCC4)SC3=NC2=O)ccc1O
IC50 (Large T antigen): 22.5 µM (active)

Cc1ccc(-c2nn(-c3ccccc3)cc2CSC(=N)N)cc1
EC50 [14]: > 120 µM (not active)
EC50 [3]: 17.1 µM (active)
EC50 [15]: > 120 µM (not active)
AC50 (Cytochrome P450 3A4): 39.8 µM (inconclusive)
EC50 [4]: 17.4 µM (active)
IC50 [7]: > 20 µM (inactive)
EC50 [16]: > 120 µM (not active)
CC50 [8]: 14.9 µM (active)

O=C(CN1CCCCC1)N1CCCc2ccccc21
EC50 (cells [5]): > 350 µM (not active)
EC50 (cells [6]): > 350 µM (not active)

Cc1cccc(C(=N)NOC(=O)c2ccoc2C)c1
EC50 [17]: 3.65 µM (active)
EC50 (cells [5]): 7.1 µM (active)
EC50 (cells [6]): > 350 µM (not active)
EC50 [18]: 3.25 µM (active)

Cc1ccc(NC(=O)c2ccc(NCCN)c([N+](=O)[O-])c2)cc1Cl
IC50 [7]: > 20 µM (inactive)
CC50 [8]: 24.4 µM (active)

— ChEMBL document CHEMBL1201862, “PubChem BioAssay data set” (2004)
